Entries after “also recorded” stand apart in the source; their conditions may differ.
What was measured:
DBA mice = details: cited from earlier work; for seizure-induced respiratory failure and death in DBA mice: dose-dependent manner
5-HT2C receptor = target: T1, 5-HT2C receptor (Homo sapiens, UniProt P28335); details: cited from earlier work
T1 sequence (P28335 33-458): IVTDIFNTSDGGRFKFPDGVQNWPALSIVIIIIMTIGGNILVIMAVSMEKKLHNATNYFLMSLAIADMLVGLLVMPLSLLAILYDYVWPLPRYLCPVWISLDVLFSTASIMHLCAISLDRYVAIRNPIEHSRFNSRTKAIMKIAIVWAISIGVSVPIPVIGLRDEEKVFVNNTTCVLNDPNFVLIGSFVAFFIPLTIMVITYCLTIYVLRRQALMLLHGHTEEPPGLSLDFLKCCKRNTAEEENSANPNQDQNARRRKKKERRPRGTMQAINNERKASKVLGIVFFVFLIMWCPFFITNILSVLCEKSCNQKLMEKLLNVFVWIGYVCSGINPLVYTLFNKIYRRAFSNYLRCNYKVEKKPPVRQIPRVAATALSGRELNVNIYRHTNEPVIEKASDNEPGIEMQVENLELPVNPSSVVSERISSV

5-HT2B receptor = 5-HT2B receptor (Homo sapiens, UniProt P41595); details: cited from earlier work
[1] = system: patients with Dravet syndrome; details: add-on (adjunctive) agent; cited from earlier work
[2] = system: DBA/1 mice (audiogenic seizures, seizure-induced respiratory arrest); test: Reversal of FFA's anticonvulsant and S-IRA blocking effects by selective 5-HT receptor antagonists in DBA/1 mice; assay type: in vivo, mouse; details: for reversal of FFA's S-IRA blocking effect: 30 min before AGSz; for reversal of anticonvulsant effect of FFA (seizure severity, incidence of tonic seizures) / reversal of S-IRA blocking effect of FFA (reduction in S-IRA incidence): antagonist dose not stated
[3] = system: DBA/1 mice (audiogenic seizures, seizure-induced respiratory arrest); test: Dose- and time-dependent effects of FFA on audiogenic seizures (AGSz) and S-IRA in DBA/1 mice; assay type: in vivo, mouse
Source text: These studies involved age matched (<80 days) male DBA/1 mice obtained from ENVIGO. […] Starting at postnatal day 23-25, the mice were primed and tested for consistent susceptibility to AGSz and S-IRA by presenting an intense acoustic stimulus, as described previously.
The typical seizure semiology in the DBA/1 mice begins with a wild running phase, followed by clonic-tonic seizures and then tonic hind-limb extension that immediately leads to S-IRA during post-ictal behavioral depression (PID). The onset of S-IRA was visually determined by the occurrence of respiratory failure following loss of the righting reflex, relaxation of the pinnae, and then a generalized loss of muscle tone. These behaviors are reliable indicators of imminent sudden death in DBA mice. […] The mice were placed in a supine position, and a polyethylene tube (4.4 mm external diameter) connected to the outflow of a rodent respirator (Harvard Apparatus 680), pumping one cc of room air at 200 strokes/min, was the placed over the nostrils, which produced observable displacement of the chest. […] The mice were monitored until they regained the righting reflex and then returned to their home cage. Video recordings of seizure behaviors and recovery were made for off-line evaluation and analysis, including the duration of PID, as indicated by time from muscle tone loss to return of the righting reflex.
The videos of seizure behaviors were analyzed visually, and the incidence (frequency) of AGSz, seizure severity, and incidence (frequency) of S-IRA following drug treatment were compared statistically to vehicle controls using the Chi-square, Mann-Whitney U or paired samples t-test with SPSS software. The ED50 was calculated using SigmaPlot 13 and Microsoft® Excel. The experimental protocols used in these studies were approved by the Laboratory Animal Care and Use Committee of Southern Illinois University School of Medicine, which are in accordance with National Institutes of Health guidelines for the care and use of laboratory animals. Measures to minimize animal usage as well as pain and discomfort were included in these procedures.
The incidence of S-IRA and tonic seizures were analyzed Chi-square test with a significance level set at p<0.05.

[4] = oral administration; cited from earlier work
[5] = in vivo; cited from earlier work

5-HT2B receptor, sequence (P41595 whole entry): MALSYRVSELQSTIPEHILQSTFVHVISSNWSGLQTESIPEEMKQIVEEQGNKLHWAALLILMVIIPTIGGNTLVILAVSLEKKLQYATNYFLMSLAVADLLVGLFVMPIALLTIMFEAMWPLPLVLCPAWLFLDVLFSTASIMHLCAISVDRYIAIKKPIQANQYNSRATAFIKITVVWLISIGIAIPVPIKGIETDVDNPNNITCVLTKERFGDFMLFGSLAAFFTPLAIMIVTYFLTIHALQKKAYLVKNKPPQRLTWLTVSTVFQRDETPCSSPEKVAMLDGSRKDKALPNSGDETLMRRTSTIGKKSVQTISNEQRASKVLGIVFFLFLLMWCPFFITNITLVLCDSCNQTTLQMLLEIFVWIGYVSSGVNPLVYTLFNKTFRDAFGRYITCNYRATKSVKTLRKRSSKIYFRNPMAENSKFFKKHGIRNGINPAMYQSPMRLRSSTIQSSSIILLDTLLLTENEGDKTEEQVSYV

In the case of `CN[C@H]1CC[C@@H](c2ccc(Cl)c(Cl)c2)c2ccccc21` [sertraline], the “seizure-induced respiratory failure and death in DBA mice” value (DBA mice) is listed as “prevent”.

In the case of `COCCCC/C(=N\OCCN)c1ccc(C(F)(F)F)cc1` [fluvoxamine], the “seizure-induced respiratory failure and death in DBA mice” value (DBA mice) is listed as “prevent”.

In the case of `CCNC(C)Cc1cccc(C(F)(F)F)c1` (racemic) [FFA, 3-trifluoromethyl-N-ethylamphetamine], the “affinity for 5-HT2C receptor” value (5-HT2C receptor) is given as “high affinity”, the “affinity for 5-HT2B receptor” value (5-HT2B receptor) is given as “high affinity” and the “seizure activity (frequency and/or severity)” value [1] is given as “significantly reduced”. For the same molecule, the “action at the 5-HT4 receptor, concluded from reversal by GR125487” value ([2]; conclusion from antagonist study in DBA/1 mice) was “agonist”, the “incidence of S-IRA” value ([3]; FFA 5 mg/kg i.p.) was “not affected” and the “incidence of S-IRA” value ([3]; FFA 10 mg/kg i.p., starting at 8 h, vs saline treated controls) was “significant reduction”. The “incidence of S-IRA” value ([3]; FFA 15 mg/kg (n=73) vs saline (n=38), FIGS. 1C-1D) was “reduction”, the “incidence of S-IRA” value ([3]; FFA 15 mg/kg i.p., starting at 8 h, vs saline treated controls) was “significant reduction” and the “return of tonic AGSz and S-IRA susceptibility (time after FFA)” value ([3]; FFA 20 mg/kg) was “approximately 48 h”. The “incidence of S-IRA” value ([3]; FFA 20 mg/kg i.p., starting at 8 h, vs saline treated controls) was “significant reduction”, the “effect on S-IRA” value ([3]; FFA 10-20 mg/kg) was “blocking effect” and the “mice with significant reduction in the incidence of S-IRA” value ([3]; FFA 10-20 mg/kg, 8 h time point (FIG. 1B)) was 100%. For the same molecule, the “incidence of tonic seizures” value ([3]; FFA i.p., dose not stated) was “significantly reduced” and the “seizure severity / AGSz susceptibility” value ([3]; dose- and time-dependent) was “significantly reduced seizure severity or blocked AGSz susceptibility”.

In the case of `CC1CCN(CC[C@H]2CCCN2S(=O)(=O)c2cccc(O)c2)CC1` [SB269970], the “reversal of FFA's anticonvulsant effect against the severity of AGSz” value (“reversal of FFA's anticonvulsant effect” below) ([2]; SB269970 30 mg/kg and 40 mg/kg) is reported as “able to reverse; also recorded: block”, the “reversal of FFA's S-IRA blocking effect” value ([2]; SB269970 30 mg/kg and 40 mg/kg) is reported as “not its S-IRA blocking effect” and the “reversal of anticonvulsant effect of FFA (seizure severity, incidence of tonic seizures)” value (“reversal of anticonvulsant effect of FFA” for short) [2] is reported as “reversed”.

In the case of `CC[C@@H](c1cccc(O)c1)[C@@H](C)CN(C)C` [Tapentadol], the duration of analgesia [4] is listed as 4 to 6 h and the onset of analgesia [4] is listed as ≤ 32 min.

In the case of `Cc1nccn1CC1CCc2c(c3ccccc3n2C)C1=O` (stereo not drawn) [Ondansetron], the “reversal of FFA's effect (AGSz severity / S-IRA)” value ([2]; Ondansetron 1-3 mg/kg) is reported as “not effective at any dose tested”, the “reversal of FFA's effect (AGSz severity / S-IRA)” value ([2]; Ondansetron 2-3 mg/kg) is reported as “not effective at any dose tested” and the “reversal of S-IRA blocking effect of FFA (reduction in S-IRA incidence)” value [2] is reported as “did not reverse”. The “reversal of anticonvulsant effect of FFA” value [2] was “did not reverse”.

In the case of `CNCC[C@@H](Oc1ccccc1C)c1ccccc1` [atomoxetine], the “seizure-induced respiratory failure and death in DBA mice” value (DBA mice) is listed as “prevent”.

For `COc1ccc(C(CN(C)C)C2(O)CCCCC2)cc1` (stereo not drawn) [venlafaxine], the “seizure-induced respiratory failure and death in DBA mice” value (DBA mice) is listed as “prevent”.

With `COc1ccccc1N1CCN(CCN(C(=O)C2CCCCC2)c2ccccn2)CC1` [WAY100635] the “reversal of FFA's effect (AGSz severity / S-IRA)” value ([2]; WAY100635 0.1-15 mg/kg) was “not effective at any dose tested”.

For `CNCCC(Oc1ccc(C(F)(F)F)cc1)c1ccccc1` (stereo not drawn) [fluoxetine], the “S-IRA in DBA/1 mice” value (DBA mice; acting via 5-HT3 receptors) is listed as “can prevent” and the “seizure-induced respiratory failure and death in DBA mice” value (DBA mice) is listed as “prevent”.

In the case of `CCC1(c2ccccc2)C(=O)NC(=O)NC1=O` [Phenobarbital], the half-life [5] is given as 92 h.

For `Cc1nc2sccn2c(=O)c1CCN1CCC(=C(c2ccc(F)cc2)c2ccc(F)cc2)CC1` [Ritanserin], the “reversal of FFA's anticonvulsant effect” value ([2]; Ritanserin 20 mg/kg) was “able to reverse; also recorded: block”, the “reversal of FFA's anticonvulsant effect” value ([2]; Ritanserin 10-20 mg/kg) was “able to reverse” and the “reversal of FFA's S-IRA blocking effect” value ([2]; Ritanserin 10-20 mg/kg) was “not its S-IRA blocking effect”. The “reversal of S-IRA blocking effect of FFA (reduction in S-IRA incidence)” value [2] was “reversed” and the “reversal of anticonvulsant effect of FFA” value [2] was “reversed”.

From patent US10952976B2 (priority 2018, dated 2021)
